# According to paper PMC10303271, “Synthesis and Receptor Binding Studies of α5 GABAAR Selective Novel Imidazodiazepines Targeted for Psychiatric and Cognitive Disorders” (Molecules, 2023):
# Read-outs that look alike come from different tables or passages of the source.
# Key:
# D1 = target: T1, D1 (Homo sapiens, UniProt P21728); test: PDSP primary binding D1; conditions: 1.5 h; primary binding, 10,000 nM; last figure of the line = mean of the 4 before it; read-out: D1, PDSP raw data, mean
# T1 construct: purchased NIMH Psychoactive Drug Screening Program (PDSP)
# Procedure: (§1) To determine if any off-target receptor-binding effects are present, all the novel ligands were sent to the National Institute of Mental Health (NIMH), Psychoactive Drug Screening Program (PDSP). The ligands were screened over a panel of 47 receptors, ion channels, and transporters to determine any other possible interactions with […]. The hERG-binding was also determined. […] No binding of the test compounds to calcium channels was observed. […] It is necessary to screen the compounds for hERG-binding during the early process of drug discovery. The unintentional binding of many drugs to hERG can cause blockade of hERG K+ channels in the heart, which can cause many side effects including cardiac arrhythmias and sudden death. […] All of the α5 imidazodiazepines were tested for hERG-binding.
# (§2) The NIMH PDSP assay protocol book [https://kidbdev.med.unc.edu/databases/PDSP%20Protocols%20II%202013-03-28.pdf accessed on 23 April 2023]. describes the protocols for primary and secondary radio-ligand binding assays. These assays were carried out in a final volume of 125 µL per well in the appropriate binding buffer.
# (§3) The binding of a ligand to a receptor, ion channel, or transporter was determined in the […] of 10 µM of the appropriate reference compound. […] Plates were incubated in the dark for 90 min at rt, and the reactions were stopped by vacuum filtration onto 0.3% polyethyleneimine (PEI) soaked 96-well filter mats using a 96-well Filtermateharvester. This was followed by three washes with cold PBS buffer. Radioactivity was then counted on a Microbeta counter. Nonlinear regression was used to analyze the data with N = 6 replicates.
# 5-HT2B = target: T2, 5-HT2B (Homo sapiens, UniProt P41595); test: PDSP primary binding 5-HT2B; conditions: 1.5 h; primary binding, 10,000 nM; last figure of the line = mean of the 4 before it; read-out: 5-HT2B, PDSP raw data, mean
# T2 construct: purchased NIMH Psychoactive Drug Screening Program (PDSP)
# Procedure: as §1, §2, §3
# Alpha1A = target: T3, Alpha1A (Homo sapiens, UniProt P35348); test: PDSP primary binding Alpha1A; conditions: 1.5 h; primary binding, 10,000 nM; last figure of the line = mean of the 4 before it; read-out: Alpha1A, PDSP raw data, mean
# T3 construct: purchased NIMH Psychoactive Drug Screening Program (PDSP)
# T3 sequence (P35348 1-466): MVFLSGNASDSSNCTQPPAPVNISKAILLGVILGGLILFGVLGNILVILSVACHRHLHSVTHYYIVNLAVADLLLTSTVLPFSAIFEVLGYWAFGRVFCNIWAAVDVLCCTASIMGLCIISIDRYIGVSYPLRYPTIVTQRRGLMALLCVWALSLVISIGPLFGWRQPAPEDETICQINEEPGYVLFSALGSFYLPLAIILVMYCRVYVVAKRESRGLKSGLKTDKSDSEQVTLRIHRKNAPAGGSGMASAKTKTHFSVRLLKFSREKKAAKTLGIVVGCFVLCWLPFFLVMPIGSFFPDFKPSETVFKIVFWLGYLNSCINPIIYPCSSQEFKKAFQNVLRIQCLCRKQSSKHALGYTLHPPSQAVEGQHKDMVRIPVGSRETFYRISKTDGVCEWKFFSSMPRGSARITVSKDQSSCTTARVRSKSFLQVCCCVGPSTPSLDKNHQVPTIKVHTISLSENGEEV
# Procedure: as §1, §2, §3
# MOR = target: T4, MOR (Homo sapiens, UniProt P35372); test: PDSP radioligand binding at MOR; conditions: 1.5 h
# T4 construct: purchased NIMH Psychoactive Drug Screening Program (PDSP)
# Text: (§4) Opioid receptors are a family of inhibitory G-coupled protein receptors where opioids act as the ligand. The kappa opioid receptors (KOR), µ and δ opioid receptors (MOR and DOR), and nociception opioid receptor (NOP) fall under the family of opioids receptors. It has been reported that oxadiazole imidazodiazepines can mediate analgesic and anti-inflammatory properties mediated also by the κ opioid receptor (KOR). The binding at KOR is usually silent. The affinities of the test compounds for KOR, DOR, and MOR were determined using radioligand binding assays at a screening concentration of 10,000 nM in collaboration with the National Institute of Mental Health’s Psychoactive Drug Screening Program (PDSP), as mentioned before. Concentration-dependent experiments were conducted to determine Ki values for the compounds that exceeded more than 50% radioligand displacement in primary binding assays.
# as §2, §3
# 5-HT3 = target: T5, 5-HT3 (Homo sapiens, UniProt P46098); test: PDSP primary binding 5-HT3; conditions: 1.5 h; primary binding, 10,000 nM; last figure of the line = mean of the 4 before it; read-out: 5-HT3, PDSP raw data, mean
# T5 construct: purchased NIMH Psychoactive Drug Screening Program (PDSP)
# T5 sequence (P46098 24-478): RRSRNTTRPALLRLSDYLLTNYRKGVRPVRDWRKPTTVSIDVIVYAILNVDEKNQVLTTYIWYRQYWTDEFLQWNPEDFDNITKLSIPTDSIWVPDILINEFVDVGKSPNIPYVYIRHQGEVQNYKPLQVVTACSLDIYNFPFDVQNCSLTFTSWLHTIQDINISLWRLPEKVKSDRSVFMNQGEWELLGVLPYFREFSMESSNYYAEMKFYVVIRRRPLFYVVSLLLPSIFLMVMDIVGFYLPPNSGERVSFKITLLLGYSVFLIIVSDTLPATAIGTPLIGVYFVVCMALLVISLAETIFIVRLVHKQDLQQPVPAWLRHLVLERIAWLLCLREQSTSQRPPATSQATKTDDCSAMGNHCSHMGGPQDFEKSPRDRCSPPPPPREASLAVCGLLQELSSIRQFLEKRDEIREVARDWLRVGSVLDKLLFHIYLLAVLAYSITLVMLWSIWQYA
# Procedure: as §1, §2, §3
# 5-HT1B = target: T6, 5-HT1B (Homo sapiens, UniProt P28222); test: PDSP primary binding 5-HT1B; conditions: 1.5 h; primary binding, 10,000 nM; last figure of the line = mean of the 4 before it; read-out: 5-HT1B, PDSP raw data, mean
# T6 construct: purchased NIMH Psychoactive Drug Screening Program (PDSP)
# Procedure: as §1, §2, §3
# [1] = target: kappa opioid receptors (KOR) (Homo sapiens, UniProt P41145); test: PDSP radioligand binding at KOR; conditions: for inhibition at 10 µM: 1.5 h
# Text: as §4, §2, §3
# H4 = target: T7, H4 (Homo sapiens, UniProt Q9H3N8); test: PDSP primary binding H4; conditions: primary binding, 10,000 nM; last figure of the line = mean of the 4 before it; read-out: H4, PDSP raw data, mean
# T7 construct: purchased NIMH Psychoactive Drug Screening Program (PDSP)
# Procedure: as §1, §2, §3
# Beta3 = target: T8, Beta3 (Homo sapiens, UniProt P13945); test: PDSP primary binding Beta3; conditions: 1.5 h; primary binding, 10,000 nM; last figure of the line = mean of the 4 before it; read-out: Beta3, PDSP raw data, mean
# T8 construct: purchased NIMH Psychoactive Drug Screening Program (PDSP)
# Procedure: as §1, §2, §3
# hERG channels = target: T9, hERG channels (Homo sapiens, UniProt Q12809); test: PDSP radioligand binding at hERG; conditions: primary binding, 10,000 nM; last figure of the line = mean of the 4 before it
# T9 construct: purchased NIMH Psychoactive Drug Screening Program (PDSP)
# Procedure: as §1, §2, §3
# [2] = at 10,000 nM, N = 5, [3H]-DAMGO 1.20 nM, read-out: Primary Binding %MOR
# [3] = primary binding, 10,000 nM, last figure of the line = mean of the 4 before it, read-out: MOR, PDSP raw data, mean
# [4] = at 10,000 nM, N = 5, [3H]-U69593 0.83 nM, read-out: Primary Binding %KOR
# [5] = primary binding, 10,000 nM, last figure of the line = mean of the 4 before it, read-out: KOR, PDSP raw data, mean
# T7 sequence (Q9H3N8 whole entry): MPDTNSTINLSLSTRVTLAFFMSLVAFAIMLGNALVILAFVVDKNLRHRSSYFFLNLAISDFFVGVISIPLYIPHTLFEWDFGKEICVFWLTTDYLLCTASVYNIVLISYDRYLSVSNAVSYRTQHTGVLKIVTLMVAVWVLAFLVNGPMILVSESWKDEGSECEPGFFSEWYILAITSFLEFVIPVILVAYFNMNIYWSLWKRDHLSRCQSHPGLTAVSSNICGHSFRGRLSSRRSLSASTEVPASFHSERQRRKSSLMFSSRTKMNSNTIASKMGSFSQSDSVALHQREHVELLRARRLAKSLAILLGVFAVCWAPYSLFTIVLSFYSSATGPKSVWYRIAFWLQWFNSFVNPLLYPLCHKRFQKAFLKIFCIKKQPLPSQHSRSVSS
# T8 sequence (P13945 whole entry): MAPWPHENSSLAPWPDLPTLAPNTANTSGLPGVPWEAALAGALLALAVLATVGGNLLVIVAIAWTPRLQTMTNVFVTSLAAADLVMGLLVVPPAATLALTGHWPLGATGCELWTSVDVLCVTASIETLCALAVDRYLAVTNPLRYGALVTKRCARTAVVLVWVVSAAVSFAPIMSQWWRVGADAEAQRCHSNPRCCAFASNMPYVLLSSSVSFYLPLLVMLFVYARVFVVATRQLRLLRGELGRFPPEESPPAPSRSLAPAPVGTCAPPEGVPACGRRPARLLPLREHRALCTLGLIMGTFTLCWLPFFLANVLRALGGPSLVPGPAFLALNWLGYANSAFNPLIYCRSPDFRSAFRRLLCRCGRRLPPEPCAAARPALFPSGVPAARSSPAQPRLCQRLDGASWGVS
# T1 sequence (P21728 whole entry): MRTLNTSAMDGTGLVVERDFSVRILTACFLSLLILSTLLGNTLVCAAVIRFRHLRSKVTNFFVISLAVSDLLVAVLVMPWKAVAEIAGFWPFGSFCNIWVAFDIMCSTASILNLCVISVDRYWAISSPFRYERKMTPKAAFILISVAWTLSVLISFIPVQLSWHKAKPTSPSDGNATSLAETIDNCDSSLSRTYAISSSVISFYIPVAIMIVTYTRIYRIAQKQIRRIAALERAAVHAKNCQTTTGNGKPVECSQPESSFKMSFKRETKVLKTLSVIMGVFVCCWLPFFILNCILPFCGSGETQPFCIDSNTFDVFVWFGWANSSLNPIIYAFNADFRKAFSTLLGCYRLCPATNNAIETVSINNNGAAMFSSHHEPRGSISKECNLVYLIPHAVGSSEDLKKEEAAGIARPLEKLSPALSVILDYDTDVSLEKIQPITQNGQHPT
# T2 sequence (P41595 whole entry): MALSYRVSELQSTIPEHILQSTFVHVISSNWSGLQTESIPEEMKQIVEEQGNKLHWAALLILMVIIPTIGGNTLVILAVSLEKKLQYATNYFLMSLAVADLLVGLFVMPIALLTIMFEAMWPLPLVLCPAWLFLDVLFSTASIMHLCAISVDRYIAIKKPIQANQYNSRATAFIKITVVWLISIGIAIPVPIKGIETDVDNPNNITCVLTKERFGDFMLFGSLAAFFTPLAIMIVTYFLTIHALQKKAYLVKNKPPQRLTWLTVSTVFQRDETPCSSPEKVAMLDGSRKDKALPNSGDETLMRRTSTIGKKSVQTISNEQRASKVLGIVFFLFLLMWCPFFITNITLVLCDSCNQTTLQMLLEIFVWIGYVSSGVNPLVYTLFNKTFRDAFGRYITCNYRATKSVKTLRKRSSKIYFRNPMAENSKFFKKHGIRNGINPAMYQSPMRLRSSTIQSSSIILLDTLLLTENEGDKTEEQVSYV
# T9 sequence (Q12809 whole entry): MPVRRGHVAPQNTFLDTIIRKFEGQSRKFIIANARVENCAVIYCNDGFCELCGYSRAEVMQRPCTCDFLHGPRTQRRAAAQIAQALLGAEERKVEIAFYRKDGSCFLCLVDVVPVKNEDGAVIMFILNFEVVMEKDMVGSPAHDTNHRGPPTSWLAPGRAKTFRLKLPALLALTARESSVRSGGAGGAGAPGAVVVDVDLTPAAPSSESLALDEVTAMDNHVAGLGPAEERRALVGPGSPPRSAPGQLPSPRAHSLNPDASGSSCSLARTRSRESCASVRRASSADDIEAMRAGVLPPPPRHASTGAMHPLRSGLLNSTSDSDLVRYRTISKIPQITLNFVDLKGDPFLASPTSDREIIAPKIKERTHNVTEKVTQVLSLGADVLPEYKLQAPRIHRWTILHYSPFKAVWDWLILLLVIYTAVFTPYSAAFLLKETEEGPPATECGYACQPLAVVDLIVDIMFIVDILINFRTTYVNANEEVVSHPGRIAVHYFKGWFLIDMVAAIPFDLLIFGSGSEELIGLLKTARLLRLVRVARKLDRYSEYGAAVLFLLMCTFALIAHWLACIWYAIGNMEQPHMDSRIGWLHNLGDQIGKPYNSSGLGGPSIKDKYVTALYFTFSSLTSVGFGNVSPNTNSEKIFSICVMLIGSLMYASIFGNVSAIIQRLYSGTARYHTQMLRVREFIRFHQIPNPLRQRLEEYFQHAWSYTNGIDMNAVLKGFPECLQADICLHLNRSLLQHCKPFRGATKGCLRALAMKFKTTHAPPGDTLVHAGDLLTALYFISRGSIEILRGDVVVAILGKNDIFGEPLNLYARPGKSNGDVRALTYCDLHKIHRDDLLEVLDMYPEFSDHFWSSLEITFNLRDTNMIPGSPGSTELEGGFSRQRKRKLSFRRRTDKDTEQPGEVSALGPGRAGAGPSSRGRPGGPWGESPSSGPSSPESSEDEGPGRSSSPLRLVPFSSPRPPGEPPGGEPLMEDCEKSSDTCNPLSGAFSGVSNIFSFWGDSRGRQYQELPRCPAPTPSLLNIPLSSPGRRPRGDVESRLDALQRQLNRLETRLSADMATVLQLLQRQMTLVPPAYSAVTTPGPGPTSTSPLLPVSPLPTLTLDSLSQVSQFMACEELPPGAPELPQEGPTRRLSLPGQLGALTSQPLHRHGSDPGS
# T6 sequence (P28222 whole entry): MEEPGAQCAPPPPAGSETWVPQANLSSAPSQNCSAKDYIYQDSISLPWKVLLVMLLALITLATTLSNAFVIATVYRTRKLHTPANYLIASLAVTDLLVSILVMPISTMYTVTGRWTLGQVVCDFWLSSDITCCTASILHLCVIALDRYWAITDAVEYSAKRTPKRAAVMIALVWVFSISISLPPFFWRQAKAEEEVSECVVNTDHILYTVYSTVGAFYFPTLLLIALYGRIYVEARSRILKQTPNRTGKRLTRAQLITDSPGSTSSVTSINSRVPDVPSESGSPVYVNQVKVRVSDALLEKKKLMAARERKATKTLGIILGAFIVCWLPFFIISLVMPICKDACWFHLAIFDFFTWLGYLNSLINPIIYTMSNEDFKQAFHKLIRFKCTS
# Chain of kappa opioid receptors (KOR) (P41145 whole entry): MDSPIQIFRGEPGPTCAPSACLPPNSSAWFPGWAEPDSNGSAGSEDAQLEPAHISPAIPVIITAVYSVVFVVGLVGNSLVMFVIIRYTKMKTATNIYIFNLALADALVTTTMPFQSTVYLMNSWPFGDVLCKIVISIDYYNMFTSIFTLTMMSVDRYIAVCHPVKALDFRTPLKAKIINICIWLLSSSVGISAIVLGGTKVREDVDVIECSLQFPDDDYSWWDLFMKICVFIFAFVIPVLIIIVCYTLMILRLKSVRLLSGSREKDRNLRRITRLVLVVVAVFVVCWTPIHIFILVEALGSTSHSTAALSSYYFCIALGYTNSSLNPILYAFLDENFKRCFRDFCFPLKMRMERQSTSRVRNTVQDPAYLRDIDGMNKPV
# T4 sequence (P35372 whole entry): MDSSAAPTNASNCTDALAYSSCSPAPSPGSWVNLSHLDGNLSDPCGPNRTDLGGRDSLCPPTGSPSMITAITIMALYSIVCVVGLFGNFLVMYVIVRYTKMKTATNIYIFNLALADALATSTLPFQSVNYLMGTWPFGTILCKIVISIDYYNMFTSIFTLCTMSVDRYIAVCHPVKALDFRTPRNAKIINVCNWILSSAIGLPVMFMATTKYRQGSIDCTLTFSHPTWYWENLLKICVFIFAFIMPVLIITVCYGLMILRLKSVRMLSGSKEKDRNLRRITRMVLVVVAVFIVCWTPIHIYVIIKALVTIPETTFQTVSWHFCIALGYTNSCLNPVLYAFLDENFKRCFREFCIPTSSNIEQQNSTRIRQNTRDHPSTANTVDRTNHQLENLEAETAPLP
Structure (SMILES),inhibition at 10 µM (D1) [%],inhibition at 10 µM (5-HT2B) [%],inhibition at 10 µM (Alpha1A) [%],inhibition at 10 µM (MOR; [2]) [%],inhibition at 10 µM (MOR; [3]) [%],inhibition at 10 µM (5-HT3) [%],inhibition at 10 µM (5-HT1B) [%],Ki [1] [nM],"inhibition at 10 µM [1, 4] [%]","inhibition at 10 µM [1, 5] [%]",inhibition at 10 µM (H4) [%],inhibition at 10 µM (Beta3) [%],"HERG, PDSP raw data, mean (hERG channels) [%]"
"C[C@H]1N=C(c2ccccc2F)c2cc(Cl)ccc2-n2cnc(-c3nc(C4CC4)no3)c21 [Compound 38, (R)-5-(8-Chloro-6-(2′-fluorophenyl)-4-methyl-4H-benzo[f]imidazo[1,5-a][1,4]diazepin-3-yl)-3-cyclopropyl-1,2,4-oxadiazole]",43,10,1.65,30.2 ± 6.46,30.2,13.5,8.75,82.2 ± 2.43,98.9 ± 1.6,98.9,5.24,24.2,9.37
"C#Cc1ccc2c(c1)C(c1ccccc1Cl)=N[C@H](C)c1c(C(=O)NC)ncn1-2 [Compound 21, (R)-6-(2′-Chlorophenyl)-8-ethynyl-N,4-dimethyl-4H-benzo[f]imidazo[1,5-a][1,4]diazepine-3-carboxamide]",9.47,-5.07,-5.44,-3.57 ± 7.68,-3.57,2.85,-0.39,660 ± 159,69.6 ± 6.01,69.6,-4.41,10.7,-5.73
C#Cc1ccc2c(c1)C(c1ccccc1Cl)=N[C@H](C)c1c(C(=O)N(C)CC)ncn1-2 [Compound 29],-31.5,30,4.97,7.31 ± 9.54,7.31,-4.07,-3.99,392 ± 78.8,69.1 ± 29.1,69.1,-21.5,9.72,-1.55
"CCc1noc(-c2ncn3c2[C@@H](C)N=C(c2ccccc2F)c2cc(Cl)ccc2-3)n1 [Compound 36, (R)-5-(8-Chloro-6-(2′-fluorophenyl)-4-methyl-4H-benzo[f]imidazo[1,5-a][1,4]diazepin-3-yl)-3-ethyl-1,2,4-oxadiazole]",42.8,3.47,-0.34,19.2 ± 5.47,19.2,-2,3.67,104 ± 7.58,96.4 ± 3,96.4,28.9,1.76,-1.15
